Structures can show the parent of a compound that is named as a salt.

This data set can be described thus: in vitro. The conditions noted are these: human, hek293t cells.
What is called viability is a read-out of living cells in per cent, often relative to untreated cells. For `CC(Cl)C(=O)N(C)CCOc1ccc(Cl)cc1` (stereo not drawn) [6-C12, 2-chloro-N-[2-(4-chlorophenoxy)ethyl]-N-methylpropanamide], the viability at 48 h, 25 µM was 81.3%. For `O=C(CCl)NC(Cc1ccccc1)C(=O)O` (stereo not drawn) [6-C13, 2-(2-chloroacetamido)-3-phenylpropanoic acid], the viability at 48 h, 25 µM worked out at 97.4%. For the compound `O=C(CCl)NCc1ccccc1OC1CCCC1` [6-C14, 2-chloro-N-{[2-(cyclopentyloxy)phenyl]methyl}acetamide], the viability at 48 h, 25 µM is 2.1%.

Consider `COc1cc(Cl)c(C)cc1NC(=O)C(C)Cl` (stereo not drawn) [6-C15, 2-chloro-N-(4-chloro-2-methoxy-5-methylphenyl)propanamide], for which the viability at 48 h, 25 µM was determined as 102%. For `CN(C)C(=O)c1ccc(CNC(=O)CCl)cc1` [6-C16, 4-[(2-chloroacetamido)methyl]-N,N-dimethylbenzamide], the viability at 48 h, 25 µM was 67.8%. In the case of `CC(Cl)C(=O)Nc1cccnc1Cl` (stereo not drawn) [6-C17, 2-chloro-N-(2-chloropyridin-3-yl)propanamide], the viability at 48 h, 25 µM came to 106%. In the case of `O=C(CCl)Nc1ccc(Oc2cccc(Cl)c2)cc1` [6-C18, 2-chloro-N-[4-(3-chlorophenoxy)phenyl]acetamide], the viability at 48 h, 25 µM is 0.765%.

Take `O=C(CCl)Nc1nccc(Cl)n1` [6-C19, 2-chloro-N-(4-chloropyrimidin-2-yl)acetamide]: the viability at 48 h, 25 µM turned out to be 100%. The figure for `CCN(CC)S(=O)(=O)c1ccc(Cl)c(NC(=O)C(C)Cl)c1` (stereo not drawn) [6-C20, 2-chloro-N-[2-chloro-5-(diethylsulfamoyl)phenyl]propanamide] is 79.6%. Consider `O=C(CCl)NCC(F)(F)c1cccnc1` [6-C21, 2-chloro-N-[2,2-difluoro-2-(pyridin-3-yl)ethyl]acetamide], for which the viability at 48 h, 25 µM is 104%.

Consider `O=C(CCl)NC(C1CC1)C1CC1` [6-C22, 2-chloro-N-(dicyclopropylmethyl)acetamide], for which the viability at 48 h, 25 µM came to 66.4%.

`O=C(CCl)Nc1nc2c(s1)CCc1ccccc1-2` [6-D03, 2-chloro-N-{4H,5H-naphtho[1,2-d][1,3]thiazol-2-yl}acetamide]: the viability at 48 h, 25 µM was 0.611%. As to `Cc1nc2ccccc2n(CCCN(C)C(=O)CCl)c1=O` [6-D04, 2-chloro-N-methyl-N-[3-(3-methyl-2-oxo-1,2-dihydroquinoxalin-1-yl)propyl]acetamide], the viability at 48 h, 25 µM stood at 1.73%.

For `CC(Cl)C(=O)N(C)C(C)c1ccccc1N1CCCS1(=O)=O` (stereo not drawn) [6-D05, 2-chloro-N-{1-[2-(1,1-dioxo-1lambda6,2-thiazolidin-2-yl)phenyl]ethyl}-N-methylpropanamide], the viability at 48 h, 25 µM was 104%.

For `CC(Cl)C(=O)Nc1ccc([N+](=O)[O-])cc1C(F)(F)F` (stereo not drawn) [6-D06, 2-chloro-N-[4-nitro-2-(trifluoromethyl)phenyl]propanamide], the viability at 48 h, 25 µM turned out to be 98.9%. Turning to `CC(Cl)C(=O)N1CCNC(=O)C1c1c(F)cccc1Cl` (stereo not drawn) [6-D07, 3-(2-chloro-6-fluorophenyl)-4-(2-chloropropanoyl)piperazin-2-one], the viability at 48 h, 25 µM came out at 107%.

For the compound `Cn1cc(CN(C(=O)CCl)c2ccc(F)cc2)cn1` [6-D08, 2-chloro-N-(4-fluorophenyl)-N-[(1-methyl-1H-pyrazol-4-yl)methyl]acetamide], the viability at 48 h, 25 µM was 2.1%. For the compound `Cc1ncccc1NC(=O)[C@H](C)NC(=O)C(C)Cl` (stereo partly drawn) [6-D09, 2-chloro-N-[(1S)-1-[(2-methylpyridin-3-yl)carbamoyl]ethyl]propanamide], the viability at 48 h, 25 µM came to 99.8%.

For the compound `CC(Cl)C(=O)NC(=O)NC12CC3CC(CC(C3)C1)C2` (stereo not drawn) [6-D10, 1-(adamantan-1-yl)-3-(2-chloropropanoyl)urea], the viability at 48 h, 25 µM was determined as 101%. Take `O=C(CCl)NCC(c1nccs1)N1CCCC1` (stereo not drawn) [6-D11, 2-chloro-N-[2-(pyrrolidin-1-yl)-2-(1,3-thiazol-2-yl)ethyl]acetamide hydrochloride]: the viability at 48 h, 25 µM was determined as 92.9%.

As for `O=C(CCl)Nc1ccccc1C(=O)Nc1ccc(F)cc1` [6-D12, 2-(2-chloroacetamido)-N-(4-fluorophenyl)benzamide], the viability at 48 h, 25 µM worked out at 0.805%.

Take `CC(Cl)C(=O)N[C@H](C)c1cnnn1C` (stereo partly drawn) [6-D13, 2-chloro-N-[(1R)-1-(1-methyl-1H-1,2,3-triazol-5-yl)ethyl]propanamide]: the viability at 48 h, 25 µM was 103%.

On to `CC(Cl)C(=O)N1CCCc2c1ccnc2N(C)C` (stereo not drawn) [6-D14, 2-chloro-1-[5-(dimethylamino)-1,2,3,4-tetrahydro-1,6-naphthyridin-1-yl]propan-1-one], for which the viability at 48 h, 25 µM amounted to 109%. On to `CC1=C(c2ccco2)CN(C(=O)C(C)Cl)CC1` (stereo not drawn) [6-D15, 2-chloro-1-[5-(furan-2-yl)-4-methyl-1,2,3,6-tetrahydropyridin-1-yl]propan-1-one], for which the viability at 48 h, 25 µM is 103%. For `CC(Cl)C(=O)N1CCCC1CC(=O)c1cnn(C)c1` (stereo not drawn) [6-D16, 2-chloro-1-{2-[2-(1-methyl-1H-pyrazol-4-yl)-2-oxoethyl]pyrrolidin-1-yl}propan-1-one], the viability at 48 h, 25 µM turned out to be 116%.

`CC(CO)N(Cc1ccccc1Cl)C(=O)CCl` (stereo not drawn) [6-D17, 2-chloro-N-[(2-chlorophenyl)methyl]-N-(1-hydroxypropan-2-yl)acetamide]: the viability at 48 h, 25 µM is 1.39%. In the case of `CC(Cl)C(=O)N(CCc1ccc(F)cc1F)C(C)C` (stereo not drawn) [6-D18, 2-chloro-N-[2-(2,4-difluorophenyl)ethyl]-N-(propan-2-yl)propanamide], the viability at 48 h, 25 µM was 101%.

On to `Cc1ccc(C2CS(=O)(=O)CCN2C(=O)C(C)Cl)o1` (stereo not drawn) [6-D19, 4-(2-chloropropanoyl)-3-(5-methylfuran-2-yl)-1lambda6-thiomorpholine-1,1-dione], for which the viability at 48 h, 25 µM is 107%.

For `CC(Cl)C(=O)N[C@H]1C[C@H](Cn2cncn2)C1` (stereo partly drawn) [6-D20, 2-chloro-N-[(1r,3r)-3-[(1H-1,2,4-triazol-1-yl)methyl]cyclobutyl]propanamide], the viability at 48 h, 25 µM was determined as 105%. Consider `COC1(CNC(=O)CCl)CCC(C(F)F)CC1` (stereo not drawn) [6-D21, 2-chloro-N-{[4-(difluoromethyl)-1-methoxycyclohexyl]methyl}acetamide], for which the viability at 48 h, 25 µM turned out to be 52.3%. For `CC(Cl)C(=O)N(Cc1ccccc1)C1C=CS(=O)(=O)C1` (stereo not drawn) [6-D22, N-benzyl-2-chloro-N-(1,1-dioxo-2,3-dihydro-1lambda6-thiophen-3-yl)propanamide], the viability at 48 h, 25 µM amounted to 98%. Regarding `Cc1ccc(CN(C(=O)CCl)C2CC2)o1` [6-E03, 2-chloro-N-cyclopropyl-N-[(5-methylfuran-2-yl)methyl]acetamide], the viability at 48 h, 25 µM was 0.647%.

`O=C(CCl)NCc1[nH]nc2c1CCCC2` [6-E04, 2-chloro-N-[(4,5,6,7-tetrahydro-2H-indazol-3-yl)methyl]acetamide]: the viability at 48 h, 25 µM worked out at 59.9%. Take `CC(Cl)C(=O)NC(=O)NCc1cccs1` (stereo not drawn) [6-E05, 3-(2-chloropropanoyl)-1-[(thiophen-2-yl)methyl]urea]: the viability at 48 h, 25 µM was 106%.

For the compound `Cc1c(NC(=O)C(C)Cl)c(=O)n(-c2ccccc2)n1C` (stereo not drawn) [6-E06, 2-chloro-N-(1,5-dimethyl-3-oxo-2-phenyl-2,3-dihydro-1H-pyrazol-4-yl)propanamide], the viability at 48 h, 25 µM worked out at 109%.

In the case of `CC(Cl)C(=O)N1CC(=O)Nc2ccccc21` (stereo not drawn) [6-E07, 4-(2-chloropropanoyl)-1,2,3,4-tetrahydroquinoxalin-2-one], the viability at 48 h, 25 µM was 117%. For `CC(Cl)C(=O)Nc1cccc([N+](=O)[O-])c1` (stereo not drawn) [6-E08, 2-chloro-N-(3-nitrophenyl)propanamide], the viability at 48 h, 25 µM amounted to 98.7%. As to `O=C(CCl)Nc1cc(-n2nnnc2C2CC2)ccc1F` [6-E09, 2-chloro-N-[5-(5-cyclopropyl-1H-1,2,3,4-tetrazol-1-yl)-2-fluorophenyl]acetamide], the viability at 48 h, 25 µM amounted to 2.11%. The figure for `Cc1cc(C)c(NC(=O)C(C)Cl)c(Cl)c1` (stereo not drawn) [6-E10, 2-chloro-N-(2-chloro-4,6-dimethylphenyl)propanamide] is 109%; for `CC(Cl)C(=O)NCCC1=CCCCC1` (stereo not drawn) [6-E11, 2-chloro-N-[2-(cyclohex-1-en-1-yl)ethyl]propanamide] it is 99%; for `O=C(CCl)NC(c1ccccc1)C1CCCCC1` (stereo not drawn) [6-E12, 2-chloro-N-[cyclohexyl(phenyl)methyl]acetamide] it is 1.12%.

Consider `Cc1nnnn1-c1ccc(F)c(NC(=O)CCl)c1` [6-E13, 2-chloro-N-[2-fluoro-5-(5-methyl-1H-1,2,3,4-tetrazol-1-yl)phenyl]acetamide], for which the viability at 48 h, 25 µM was 1.24%.

Regarding `O=C(CCl)NCCc1cccc2ccccc12` [6-E14, 2-chloro-N-[2-(naphthalen-1-yl)ethyl]acetamide], the viability at 48 h, 25 µM was determined as 4.85%. On to `CCN(C(=O)CCl)c1ccccc1` [6-E15, 2-chloro-N-ethyl-N-phenylacetamide], for which the viability at 48 h, 25 µM came to 1.62%. Take `CCCC(=O)N1CCC(NC(=O)CCl)c2ccccc21` (stereo not drawn) [6-E16, N-(1-butanoyl-1,2,3,4-tetrahydroquinolin-4-yl)-2-chloroacetamide]: the viability at 48 h, 25 µM was 17.5%. As for `CC1CCN(Cc2csc(NC(=O)CCl)n2)CC1` [6-E17, 2-chloro-N-{4-[(4-methylpiperidin-1-yl)methyl]-1,3-thiazol-2-yl}acetamide hydrochloride], the viability at 48 h, 25 µM turned out to be 0.0269%. `O=C(CCl)NCC1(c2ccc(F)cc2)CCCC1` [6-E18, 2-chloro-N-{[1-(4-fluorophenyl)cyclopentyl]methyl}acetamide]: the viability at 48 h, 25 µM worked out at 5.22%. As for `O=C(CCl)NCCc1ncc(F)cn1` [6-E19, 2-chloro-N-[2-(5-fluoropyrimidin-2-yl)ethyl]acetamide], the viability at 48 h, 25 µM was 104%. As to `O=C(CCl)NCc1ccc(NC(=O)C2CC2)cc1` [6-E20, N-{4-[(2-chloroacetamido)methyl]phenyl}cyclopropanecarboxamide], the viability at 48 h, 25 µM was 2.09%. For the compound `CC(Cl)C(=O)NC(C)(C)c1ccc(F)cc1F` (stereo not drawn) [6-E21, 2-chloro-N-[2-(2,4-difluorophenyl)propan-2-yl]propanamide], the viability at 48 h, 25 µM came out at 93.5%. Take `O=C(CCl)NCc1ccc(N2CCOCC2)nc1` [6-E22, 2-chloro-N-{[6-(morpholin-4-yl)pyridin-3-yl]methyl}acetamide]: the viability at 48 h, 25 µM came to 8.26%.

For the origin of these results see PMC11995724, “Antibiotic target discovery by integrated phenotypic and activity-based profiling of electrophilic fragments” (Cell chemical biology, 2025).
